Values of other authors, collected in patent US6455070B1, “Composition for treating symptoms of influenza” (East Park Research, Inc., priority 2001, dated 2002).

System: wide variety of viruses
Settings: greatest activity under alkaline conditions (pH 7.5)

COC(=O)C1=CO[C@@H](C)[C@@H](C=O)[C@@H]1CC(=O)[O-].COC(=O)C1=CO[C@@H](C)[C@@H](C=O)[C@@H]1CC(=O)[O-].[Ca+2] [calcium elenolate]
in vitro antiviral activity: activity against a wide variety of viruses
